Square brackets hold non-standard residues; d marks the D form. Peptide text beside a SMILES is read from it. Trp(6-Cl) = N[C@@H](Cc1c[nH]c2cc(Cl)ccc12)C(=O)O; Pmp = N[C@@H](Cc1ccc(CP(=O)(O)O)cc1)C(=O)O; Ac3c = NC1(C(=O)O)CC1; Aib = CC(C)(N)C(=O)O
Assay: In vitro inhibition of binding towards of human wild-type p53 to GST-hdm2

CSCC[C@H](NC(=O)[C@H](Cc1ccccc1)NC(C)=O)C(=O)NC(C)(C)C(=O)N[C@@H](Cc1ccc(CP(=O)(O)O)cc1)C(=O)N[C@@H](C)C(=O)N[C@@H](CCC(=O)O)C(=O)NC1(C(=O)N[C@@H](CC(C)C)C(N)=O)CC1 (Ac-FM[Aib][Pmp]AE[Ac3c]L-NH2)
IC50: > 2000 nM

CSCC[C@H](NC(=O)[C@H](Cc1ccccc1)NC(C)=O)C(=O)NC(C)(C)C(=O)N[C@@H](Cc1ccc(CP(=O)(O)O)cc1)C(=O)N[C@@H](Cc1c[nH]c2cc(Cl)ccc12)C(=O)N[C@@H](CCC(=O)O)C(=O)NC1(C(=O)N[C@@H](CC(C)C)C(N)=O)CC1 (Ac-FM[Aib][Pmp][Trp(6-Cl)]E[Ac3c]L-NH2)
IC50: 5 nM
